In series [1] the test system is Chenopodium album. As to the kind of experiment: Upland field foliage treatment (Test Example 1). The series is classed as in vivo. Conditions: foliage treatment 14th day after sowing, wettable powder, 1 kg active ingredient per hectare, evaluated 21st day after application. The gist of the method:
(§1)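 Read-out is a visual index scored 21 days after treatment. Higher values mean more herbicidal effect on weeds and lower values mean better crop safety. Plants were raised from seed in upland soil and received a leaf-surface spray of 1 kg active ingredient per hectare at 14 days.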

Series [2] relates to Digitaria adscendens. As to the kind of experiment: Upland field foliage treatment (Test Example 1). The series is classed as in vivo. Conditions: foliage treatment 14th day after sowing, wettable powder, 1 kg active ingredient per hectare, evaluated 21st day after application. The method, boiled down:
as §1

For series [3], the system named is Setaria viridis. As to the kind of experiment: Upland field foliage treatment (Test Example 1). The class given is in vivo. Conditions: foliage treatment 14th day after sowing, wettable powder, 1 kg active ingredient per hectare, evaluated 21st day after application. The gist of the method: as §1
Series [4] has as its system Stellaria media. As to the kind of experiment: Upland field foliage treatment (Test Example 1). The series is classed as in vivo. Conditions: foliage treatment 14th day after sowing, wettable powder, 1 kg active ingredient per hectare, evaluated 21st day after application. The method, boiled down: as §1
Series [5] has as its system soybean (Glycine max). The series is described as follows: Upland field foliage treatment (Test Example 1), crop. The series is classed as in vivo. The conditions noted are these: foliage treatment 14th day after sowing, 1 kg active ingredient per hectare, evaluated 21st day, lower index = higher safety. The method, boiled down:
as §1

Series [6] deals with wheat (Triticum aestivum). The description is as above. The series is classed as in vivo. The conditions noted are these: foliage treatment 14th day after sowing, 1 kg active ingredient per hectare, evaluated 21st day, lower index = higher safety. The method, boiled down: as §1
Series [7] concerns Chenopodium album. The series is described as follows: Upland soil treatment (Test Example 2). The class given is in vivo. Conditions: soil surface treatment next day after sowing, wettable powder, 1 kg active ingredient per hectare, evaluated 21st day after application. The method, boiled down:
(§2)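 Applies a soil-surface, pre-emergence spray of 1 kg active ingredient/ha (wettable powder in water) one day after sowing; weed control and crop injury are rated on an index scale three weeks later.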

Series [8] has as its system Digitaria adscendens. As to the kind of experiment: Upland soil treatment (Test Example 2). The series is classed as in vivo. Conditions: soil surface treatment next day after sowing, wettable powder, 1 kg active ingredient per hectare, evaluated 21st day after application. The gist of the method: as §2
The test system of series [9] is Setaria viridis. As to the kind of experiment: Upland soil treatment (Test Example 2). The series is classed as in vivo. Conditions: soil surface treatment next day after sowing, wettable powder, 1 kg active ingredient per hectare, evaluated 21st day after application. The method, boiled down: as §2
Series [10] has as its system Stellaria media. As to the kind of experiment: Upland soil treatment (Test Example 2). The class given is in vivo. Conditions: soil surface treatment next day after sowing, wettable powder, 1 kg active ingredient per hectare, evaluated 21st day after application. The method, boiled down: as §2
Series [11] has as its system soybean (Glycine max). The series is described as follows: Upland soil treatment (Test Example 2), crop. The class given is in vivo. The conditions noted are these: soil surface treatment next day after sowing, 1 kg active ingredient per hectare, evaluated 21st day, lower index = higher safety. The gist of the method:
as §2

For series [12], the system named is wheat (Triticum aestivum). As to the kind of experiment: Upland soil treatment (Test Example 2), crop. The series is classed as in vivo. Conditions: soil surface treatment next day after sowing, 1 kg active ingredient per hectare, evaluated 21st day, lower index = higher safety. The gist of the method: as §2
Series [13] concerns Echinochloa spp. The series is described as follows: Paddy field treatment (Test Example 3). The class given is in vivo, Echinochloa crusgalli. The conditions noted are these: paddy pot, submerged 4 cm, dropped on water surface 10th day after transplantation, 1 kg active ingredient per hectare, evaluated 21st day. The gist of the method:
(§3)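 Pot test, flooded paddy soil (4 cm water); weeds sown, 2-leaf rice (Koshihikari) transplanted. Day 10 post-transplant: WP dropped on water, 1 kg a.i./ha. Score index at 21 d after application; higher = stronger herbicidal effect.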

Series [14] has as its system Ammannia multiflora. The series is described as follows: Paddy field treatment (Test Example 3). The series is classed as in vivo. The conditions noted are these: paddy pot, submerged 4 cm, dropped on water surface 10th day after transplantation, 1 kg active ingredient per hectare, evaluated 21st day. The gist of the method: as §3
Series [15] has as its system Monochoria vaginalis. The series is described as follows: Paddy field treatment (Test Example 3). The series is classed as in vivo. Conditions: paddy pot, submerged 4 cm, dropped on water surface 10th day after transplantation, 1 kg active ingredient per hectare, evaluated 21st day. The gist of the method: as §3
Series [16] has as its system Scirpus juncoides. The series is described as follows: Paddy field treatment (Test Example 3). The series is classed as in vivo. The conditions noted are these: paddy pot, submerged 4 cm, dropped on water surface 10th day after transplantation, 1 kg active ingredient per hectare, evaluated 21st day. The gist of the method:
as §3

In series [17] the test system is rice (Oryza sative, variety: Koshihikari). As to the kind of experiment: Paddy field treatment (Test Example 3), crop. Conditions: transplanted rice two-leaf period, water surface treatment 10th day after transplantation, 1 kg active ingredient per hectare, evaluated 21st day, lower index = higher safety. The series is classed as in vivo, Oryza sativa. The method, boiled down:
as §3

Results on 2 molecules are retold here after US6809065B2, “Herbicide containing substituted pyrazole derivative as active ingredient” (SDS Biotech K.K., priority 2001, dated 2004).

Each structure is given as a SMILES string.

Consider `COC=C(Cn1nc(-c2cc(Cl)ccc2Cl)cc1C)C(=O)OC` [Compound 8], for which the “Herbicidal activity Chenopodium album” value in series [1] was 5 (herbicidal effect of not less than 90% by weight); in [7], 4 (herbicidal effect of not less than 70% by weight and less than 90% by weight). Further, the “Herbicidal activity Digitaria adscendens” value in [2] was 5 (herbicidal effect of not less than 90% by weight); in [8], 4 (herbicidal effect of not less than 70% by weight and less than 90% by weight). The “Herbicidal activity Setaria viridis” value in series [3] was 4 (herbicidal effect of not less than 70% by weight and less than 90% by weight); in [9] it was 4 (herbicidal effect of not less than 70% by weight and less than 90% by weight). Besides, the “Herbicidal activity Stellaria media” value is 5 (herbicidal effect of not less than 90% by weight) in series [4]; 4 (herbicidal effect of not less than 70% by weight and less than 90% by weight) in [10]. In addition, the “Herbicidal activity Glycine max” value in series [5] is 0 (herbicidal effect of not less than 0% by weight and less than 10% by weight); in [11], 0 (herbicidal effect of not less than 0% by weight and less than 10% by weight). The “Herbicidal activity Triticum aestivum” value in series [6] is 0 (herbicidal effect of not less than 0% by weight and less than 10% by weight); in series [12] it was 0 (herbicidal effect of not less than 0% by weight and less than 10% by weight). Also, the “Herbicidal activity Echinochloa spp.” value in series [13] was 4 (herbicidal effect of not less than 70% by weight and less than 90% by weight). Moreover, the “Herbicidal activity Ammannia multiflora” value in series [14] was 5 (herbicidal effect of not less than 90% by weight). In addition, in series [15], the “Herbicidal activity Monochoria vaginalis” value is given as 5 (herbicidal effect of not less than 90% by weight). The “Herbicidal activity Scirpus juncoides” value in series [16] is 4 (herbicidal effect of not less than 70% by weight and less than 90% by weight). In series [17], the “Herbicidal activity Oryza sativa” value was 0 (herbicidal effect of not less than 0% by weight and less than 10% by weight).

As for `COC=C(Cn1nc(-c2cc(Cl)ccc2Cl)c(Br)c1C)C(=O)OC` [Compound 31], the “Herbicidal activity Chenopodium album” value in series [1] and in series [7] was 5 (herbicidal effect of not less than 90% by weight) throughout. In addition, the “Herbicidal activity Digitaria adscendens” value in series [2] and in [8] was 5 (herbicidal effect of not less than 90% by weight) in each case. In addition, the “Herbicidal activity Setaria viridis” value in series [3] and in series [9] was 5 (herbicidal effect of not less than 90% by weight) in each case. Moreover, the “Herbicidal activity Stellaria media” value in series [4] and in [10] was 5 (herbicidal effect of not less than 90% by weight) each time. For the same molecule, the “Herbicidal activity Glycine max” value in series [5] is 1 (herbicidal effect of not less than 10% by weight and less than 30% by weight); in series [11], 0 (herbicidal effect of not less than 0% by weight and less than 10% by weight). Further, the “Herbicidal activity Triticum aestivum” value in [6] is 1 (herbicidal effect of not less than 10% by weight and less than 30% by weight); in series [12] it was 0 (herbicidal effect of not less than 0% by weight and less than 10% by weight). In [13], the “Herbicidal activity Echinochloa spp.” value is recorded as 5 (herbicidal effect of not less than 90% by weight). Moreover, in series [14], the “Herbicidal activity Ammannia multiflora” value is reported as 5 (herbicidal effect of not less than 90% by weight). Besides, in [15], the “Herbicidal activity Monochoria vaginalis” value is given as 5 (herbicidal effect of not less than 90% by weight). The “Herbicidal activity Scirpus juncoides” value in [16] is recorded as 5 (herbicidal effect of not less than 90% by weight). In addition, the “Herbicidal activity Oryza sativa” value in [17] is 1 (herbicidal effect of not less than 10% by weight and less than 30% by weight).
